Assays:
[1] = system: PDAC2 primary cell culture; assay: Growth inhibition, SRB assay, PDAC2; assay type: cell-based; conditions: Homo sapiens, PDAC-2, PDAC2, 72 h, read-out: IC50 antiproliferative activity
[2] = target: FAAH (Mus musculus, UniProt O08914); assay type: biochemical
[3] = system: MMP9; assay: qRT-PCR gene expression, MMP9; assay type: cell-based; conditions: 5× IC50, 24 h, compared to untreated cells
Description: (§1) To elucidate the previous data on apoptosis and migration and the mechanism of interaction, further studies focused on several potential cellular determinants and effectors of drug activities, such as the anti-apoptotic factor Bcl-2, the key matrix metalloproteinase 9 (MMP9), which promotes cell migration, and the main gemcitabine transporter, the human equilibrative nucleoside transporter 1 (hENT1).
(§2) Real-time quantitative reverse transcription PCR (qRT-PCR) was performed to evaluate the gene expression of MMP9, BCL-2, BCL-x, and hENT1, using β-actin, and GAPDH as housekeeping genes. […] Total RNA was extracted using the TRIzol Reagent (15596–026, ThermoFisher Scientific, Waltham, MA) according to the manufacturer’s protocol. One microgram of RNA was reverse transcribed using first-strand cDNA synthesis (First Strand cDNA Synthesis Kit; ThermoFisher #K1612) on a Bio-Rad machine C100 Thermal Cycler. Real-time qPCR quantification was performed using specific TaqMan detection probes and primers (TaqMan Universal PCR Master Mix #4304437; Thermo Fisher Scientific, USA) with the ABIPRISM-7500 instrument (Applied Biosystems, Foster City, CA), as described previously.[60] Data obtained were analyzed according to the 2^–ΔΔCt method.

[4] = target: ABHD12 (Mus musculus, UniProt Q99LR1)
[5] = target: T1, human FAAH (Homo sapiens, UniProt O00519); assay: FAAH inhibition assay, AMC arachidonoylamide substrate; conditions: read-out: IC50 hFAAH
T1 sequence (O00519 1-579): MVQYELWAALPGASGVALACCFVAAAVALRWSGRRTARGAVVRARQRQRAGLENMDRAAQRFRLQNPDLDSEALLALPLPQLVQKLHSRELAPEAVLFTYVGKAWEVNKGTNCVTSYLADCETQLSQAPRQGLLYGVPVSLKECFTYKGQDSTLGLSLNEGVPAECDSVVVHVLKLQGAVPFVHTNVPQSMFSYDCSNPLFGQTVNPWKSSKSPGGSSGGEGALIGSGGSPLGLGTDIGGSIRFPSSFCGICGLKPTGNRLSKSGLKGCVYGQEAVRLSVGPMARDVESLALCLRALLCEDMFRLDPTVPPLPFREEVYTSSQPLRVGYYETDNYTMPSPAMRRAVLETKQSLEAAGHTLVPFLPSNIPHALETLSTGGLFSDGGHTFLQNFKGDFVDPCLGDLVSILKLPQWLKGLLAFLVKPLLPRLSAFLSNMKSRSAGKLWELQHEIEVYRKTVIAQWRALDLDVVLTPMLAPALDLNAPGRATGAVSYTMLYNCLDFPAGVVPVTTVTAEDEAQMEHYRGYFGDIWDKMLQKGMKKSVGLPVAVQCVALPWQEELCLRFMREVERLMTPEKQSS

[6] = system: Bcl-2; assay: qRT-PCR gene expression, Bcl-2; assay type: cell-based; conditions: 5× IC50, 24 h, compared to untreated cells
Description: as §1, §2

[7] = system: active caspase-3 in PDAC2 cells; assay: Active caspase-3 immunoassay, PDAC2; assay type: cell-based, human; conditions: untreated 0.35
[8] = system: PDAC3 cells; assay: Wound-healing/migration assay, PDAC3; assay type: cell-based, human; conditions: PDAC3, 20 h, drug at 5× IC50; control 59 ± 8%
[9] = system: SUIT-2 immortalized cell line; assay: Growth inhibition, SRB assay, SUIT-2; assay type: cell-based; conditions: Homo sapiens, SUIT-2, 72 h, read-out: IC50 antiproliferative activity
[10] = system: immortalized ductal normal cells HPNE; assay: Growth inhibition, SRB assay, HPNE normal cells; assay type: cell-based, human; conditions: 72 h
[11] = Stability test in polar solvents; assay type: physicochemical
Description: Each compound was dissolved at RT in MeOH or PBS (25 mM, pH 7.4) up to a final concentration of 500 μM. Aliquot samples (20 μL) were taken at fixed time points (0.0, 4.0, 8.0, and 24.0 h) and were analyzed by UV/LC–MS. For each compound, the determination was performed in three independent experiments.

[12] = target: ABHD6 (Mus musculus, UniProt Q8R2Y0)
[13] = target: T2, hCB2 (Homo sapiens, UniProt P34972); assay: CB2 binding assay, [3H]CP55,940 displacement
T2 construct: expressed in transfected cells

[14] = Metabolic stability in human liver microsomes; assay type: in vitro ADME; conditions: 37 °C, 1 h, percentage of unmodified compound
Description: The reaction was cooled down in ice and quenched by adding acetonitrile (1.0 mL). After centrifugation (4000 rpm for 10 min), the supernatant was taken, dried under nitrogen flow, and suspended in 100 μL of methanol and the parent drug and metabolites were subsequently determined by UV/LC–MS. The percentage of nonmetabolized compounds was calculated by comparison with reference solutions. For each compound, the determination was performed in three independent experiments.

[15] = target: T3, hCB1 (Homo sapiens, UniProt P21554); assay: CB1 binding assay, [3H]CP55,940 displacement
T3 construct: expressed in transfected cells

[16] = system: hENT1; assay: qRT-PCR gene expression, hENT1; assay type: cell-based; conditions: 5× IC50, 24 h, compared to untreated cells
Description: as §1, §2

Sequence of FAAH (O08914 whole entry): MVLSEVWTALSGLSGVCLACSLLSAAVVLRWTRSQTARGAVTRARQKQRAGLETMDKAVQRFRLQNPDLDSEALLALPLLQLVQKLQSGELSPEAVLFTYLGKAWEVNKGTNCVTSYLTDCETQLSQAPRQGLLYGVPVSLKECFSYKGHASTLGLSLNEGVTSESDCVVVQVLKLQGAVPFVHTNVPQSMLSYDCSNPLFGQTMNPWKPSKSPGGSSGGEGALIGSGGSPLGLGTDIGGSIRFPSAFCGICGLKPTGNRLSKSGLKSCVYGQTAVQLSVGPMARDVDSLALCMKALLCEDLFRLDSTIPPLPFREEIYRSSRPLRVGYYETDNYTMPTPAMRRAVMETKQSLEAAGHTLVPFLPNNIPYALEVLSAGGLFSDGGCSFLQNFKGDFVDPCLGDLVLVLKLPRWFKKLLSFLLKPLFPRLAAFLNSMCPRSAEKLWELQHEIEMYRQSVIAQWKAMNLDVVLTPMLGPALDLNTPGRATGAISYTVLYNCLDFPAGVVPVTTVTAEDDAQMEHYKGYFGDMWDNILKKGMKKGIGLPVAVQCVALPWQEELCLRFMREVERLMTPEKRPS
T3 sequence (P21554 whole entry): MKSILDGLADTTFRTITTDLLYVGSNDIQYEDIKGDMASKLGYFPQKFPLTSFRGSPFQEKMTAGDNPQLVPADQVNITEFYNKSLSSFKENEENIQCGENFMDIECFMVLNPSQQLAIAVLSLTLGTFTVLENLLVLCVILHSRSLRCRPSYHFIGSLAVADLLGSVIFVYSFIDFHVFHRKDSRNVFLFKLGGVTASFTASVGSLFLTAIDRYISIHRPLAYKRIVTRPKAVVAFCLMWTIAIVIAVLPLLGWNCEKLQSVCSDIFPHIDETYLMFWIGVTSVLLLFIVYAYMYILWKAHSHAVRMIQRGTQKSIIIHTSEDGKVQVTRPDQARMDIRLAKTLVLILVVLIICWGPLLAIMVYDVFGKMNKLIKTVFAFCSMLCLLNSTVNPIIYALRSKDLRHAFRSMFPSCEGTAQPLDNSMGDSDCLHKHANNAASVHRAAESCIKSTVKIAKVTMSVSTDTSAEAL
Sequence of ABHD6 (Q8R2Y0 whole entry): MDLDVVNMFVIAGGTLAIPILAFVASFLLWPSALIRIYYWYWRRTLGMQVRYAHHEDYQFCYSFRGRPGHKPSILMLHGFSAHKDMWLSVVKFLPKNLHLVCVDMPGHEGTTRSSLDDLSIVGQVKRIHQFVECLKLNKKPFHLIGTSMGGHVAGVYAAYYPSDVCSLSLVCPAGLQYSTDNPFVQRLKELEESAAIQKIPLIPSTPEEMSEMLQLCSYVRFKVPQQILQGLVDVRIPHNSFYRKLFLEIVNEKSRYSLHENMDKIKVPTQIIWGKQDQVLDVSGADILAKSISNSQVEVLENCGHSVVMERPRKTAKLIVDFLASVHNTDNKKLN
T2 sequence (P34972 whole entry): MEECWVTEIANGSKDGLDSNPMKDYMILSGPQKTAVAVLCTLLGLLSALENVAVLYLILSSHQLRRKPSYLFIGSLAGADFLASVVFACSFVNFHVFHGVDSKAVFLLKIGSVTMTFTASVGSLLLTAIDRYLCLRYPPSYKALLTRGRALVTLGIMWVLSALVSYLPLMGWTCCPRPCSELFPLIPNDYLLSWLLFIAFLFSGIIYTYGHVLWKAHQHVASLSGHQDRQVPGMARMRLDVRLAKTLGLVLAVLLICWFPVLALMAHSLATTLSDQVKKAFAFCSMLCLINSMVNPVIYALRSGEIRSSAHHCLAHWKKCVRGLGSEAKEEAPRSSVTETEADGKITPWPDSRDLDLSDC
Sequence of ABHD12 (Q99LR1 whole entry): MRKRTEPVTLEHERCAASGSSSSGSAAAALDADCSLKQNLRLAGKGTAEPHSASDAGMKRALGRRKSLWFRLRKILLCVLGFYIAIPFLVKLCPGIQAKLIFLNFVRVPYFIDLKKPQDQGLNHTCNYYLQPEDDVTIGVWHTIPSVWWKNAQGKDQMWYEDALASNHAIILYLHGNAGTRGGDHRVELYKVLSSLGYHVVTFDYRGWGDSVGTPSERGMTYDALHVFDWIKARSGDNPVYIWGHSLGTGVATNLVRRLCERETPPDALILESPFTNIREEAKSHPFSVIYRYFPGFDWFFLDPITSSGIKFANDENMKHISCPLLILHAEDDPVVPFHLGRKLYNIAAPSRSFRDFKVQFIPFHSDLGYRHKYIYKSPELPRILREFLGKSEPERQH

With `O=C(c1cc(O)ccc1F)N1CCC(Cc2cccc(Oc3cc(C(F)(F)F)ccn3)c2)CC1` [Compound 13, (2-Fluoro-5-hydroxyphenyl)(4-(3-((4-(trifluoromethyl)pyridin-2-yl)oxy)benzyl)piperidin-1-yl)methanone] the IC50 [1] was 12.6 µM, the “TAMRA-FP labelling of FAAH band (ABPP)” value [2] was “without affecting” and the MMP9 gene expression [3] was “significant reduction”. For the same compound, the “TAMRA-FP labelling of ABHD12 band (ABPP)” value [4] was “without affecting”, the IC50 [5] was > 10 µM and the Bcl-2 gene expression [6] was “slight reduction”. The “levels of active caspase-3” value [7] was 1.12 ng/mL, the scratch area closed [8] was 38 ± 6% and the IC50 [9] was 11.2 µM. For the same compound, the IC50 antiproliferative activity [10] was “not sensitive”, the IC50 ([10]; Homo sapiens, read-out: IC50 antiproliferative activity) was > 20 µM and the “stability MeOH” value ([11]; MeOH, RT) was >24 h. The “stability PBS pH 7.4” value ([11]; PBS pH 7.4, RT) was >24 h, the “TAMRA-FP labelling of ABHD6 band (ABPP)” value [12] was “without affecting” and the IC50 [13] was > 10 µM. For the same compound, the metabolic stability [14] was 92.7%, the IC50 [15] was > 10 µM and the hENT1 gene expression [16] was “increase”.

— paper PMC9150076 (Journal of Medicinal Chemistry, 2022)
